In article PMC6273912, “Novel 5-Substituted 2-(Aylmethylthio)-4-chloro-N-(5-aryl-1,2,4-triazin-3-yl)benzenesulfonamides: Synthesis, Molecular Structure, Anticancer Activity, Apoptosis-Inducing Activity and Metabolic Stability” (Molecules, 2016):

Columns and labels:
[1] = tested on: HeLa; test: Cell morphology (light microscope), HeLa; type: cell-based, human; conditions: 25–100 μM, 24 h
Description: (§1) To evaluate the changes in morphology of the treated cells, they were incubated with increasing concentrations of 37 (HCT-116, HeLa) or 46 (MCF-7) for 24 h and observed using light microscope.
(§2) The HCT-116, HeLa and MCF-7cells were seeded on 24-well plates (5 × 10^4/per well) in 300 μL of medium and incubated with 37 (HCT-116, HeLa) or 46 (MCF-7) for 24 h. Cells incubated with increasing concentrations of compounds (25–100 μM) were observed after 24 h using light microscope Axiovert 200 (Zeiss, Oberkochen, Germany).

[2] = tested on: HCT-116, HeLa and MCF-7; test: MTT cell viability assay, all tested cell lines together; type: cell-based; conditions: Homo sapiens; average over HCT-116, HeLa and MCF-7; read-out: average IC50 against all tested cell lines
Description: (§3) All chemicals, if not stated otherwise, were obtained from Sigma-Aldrich (St. Louis, MO, USA). The MCF-7 cell line was purchased from Cell Lines Services (Eppelheim, Germany), the HeLa and HCT-116 cell lines were obtained from the Department of Microbiology, Tumor and Cell Biology, Karolinska Institute (Stockholm, Sweden). Cells were cultured in Dulbecco’s modified Eagle’s medium (DMEM) supplemented with 10% fetal bovine serum, 2 mM glutamine, 100 units/mL penicillin, and 100 μg/mL streptomycin. Cultures were maintained in a humidified atmosphere with 5% CO2 at 37 °C in an incubator (HeraCell, Heraeus, Langenselbold, Germany).
(§4) Cell viability was determined using the MTT (3-(4,5-dimethylthiazol-2-yl)-2,5-diphenyl-tetrazoliumbromide) assay. Stock solutions of the studied compounds were prepared in 100% DMSO. […] Cells were seeded in 96-well plates at a density of 5 × 10^3 cells/well and treated for 72 h with the examined compounds in the concentration range 1–100 μM (1, 10, 25, 50 and 100 μM). Following treatment, MTT (0.5 mg/mL) was added to the medium and cells were further incubated for 2 h at 37 °C. Cells were lysed with DMSO and the absorbance of the formazan solution was measured at 550 nm with a plate reader (1420 multilabel counter, Victor, Jügesheim, Germany). […] The experiment was performed in triplicate. Values are expressed as the mean ± SD of at least three independent experiments.

[3] = tested on: HCT-116; test: Cell cycle analysis (sub-G1, DAPI flow cytometry), HCT-116; type: cell-based, human; conditions: HCT-116, 24 h, dose dependent increase, mean ± SD
Description: (§5) One of the most common mechanisms in anticancer drug treatment is changes in cell cycle, which can be measured by DNA content. Cell cycle distribution in HCT-116, HeLa and MCF-7 cells was examined to determine cycle arrest and/or presence of sub-G1 after treatment with compounds 37 and 46. […] Cell populations data are expressed as the mean ± SD of at least three independent experiments.
(§6) Following treatment, cells were fixed in cold 70% ethanol for 30 min. Fixed cells were stained for 15 min in buffer containing 500 μg/mL RNAse A (EURx, Gdansk, Poland) and 2.5 μg/mL of DAPI (Sigma-Aldrich, Munich, Germany). The fluorescence of DAPI was measured at 440 ± 40 nm with a flow cytometer (LSR II, BD Biosciences, Mountain View, CA, USA). Each experiment was performed at least in triplicate. Data were analyzed off-line using the BD FACSDiva (BD Biosciences).

[4] = tested on: HeLa; test: Cell cycle analysis (sub-G1, DAPI flow cytometry), HeLa; type: cell-based, human; conditions: 24 h, dose dependent increase, mean ± SD
Description: as §5, §6

[5] = tested on: HeLa (cervical cancer); test: MTT cell viability assay, HeLa; type: cell-based, human; conditions: 72 h of incubation, mean ± SD
Description: as §3, §4

[6] = tested on: HCT-116; test: Mitochondrial membrane potential (JC-1), HCT-116; type: cell-based, human; conditions: HCT-116, 24 h, low and moderate concentrations
Description: Loss of the mitochondrial membrane potential (Δψm) is one of the earliest indicators of an apoptosis. It can be detected using fluorescent dye JC-1 (5,5′,6,6′-tetrachloro-1,1′,3,3′-tetraethylbenzimidazolylcarbocyanine iodide) exited with blue laser. JC-1 spontaneously forms dimer complexes (J aggregates) with red fluorescent or remain as a monomers with green fluorescence in cells with high and low Δψm, respectively.
Half an hour before the end of 24 h-treatment 2.5 μg/mL of JC-1 (5,5′,6,6′-tetrachloro-1,1′,3,3′-tetraethylbenzimidazolylcarbocyanine iodide) was added to the cell medium. As a negative control 100 μM CCCP (carbonyl cyanide 3-chlorophenylhydrazone) was used 15 min before JC-1 treatment. Following treatment cells were twice washed with PBS and analyzed with flow cytometer (LSR II, BD Biosciences).
Green and red fluorescence were observed using FL-1 (530 ± 30 nm) and FL-2 (585 ± 42 nm) channels, respectively. Percentage of cell population in red or green fluorescence gate indicated the level of Δψm. Decreasing red fluorescence cell population indicated lower Δψm.

[7] = tested on: HCT-116; test: Cell morphology (light microscope), HCT-116; type: cell-based, human; conditions: HCT-116, 25–100 μM, 24 h
Description: as §1, §2

[8] = tested on: active caspases (caspases 1 through 9) in HeLa cells; test: Caspase activity (FAM-VAD-FMK, flow cytometry), HeLa; type: cell-based, human; conditions: 100 μM, increase over control
Description: Caspase activation plays a central role in the execution of apoptosis and is required for the occurrence of its biochemical and morphological hallmarks, such as DNA fragmentation, formation of apoptotic bodies and chromatin condensation. The ability of the examined compounds to induce caspase activity was determined with the use of a fluorescent labeled caspase inhibitor, a carboxyfluorescein (FAM) derivative of valylalanylaspartic acid (VAD) fluoromethyl ketone (FMK).
FAM-VAD-FMK contains a target sequence recognized by active caspases (caspases 1 through 9). Binding to this sequence inhibits the enzymatic activity of caspases and allows for the determination of their activity through the direct measurement of fluorescent intensity of the bound inhibitor. […] The strongest influence on caspase activation was noticed for the HeLa cell line, where that cell population increased by 31% in the presence of 37 at a concentration of 100 μM.
Caspase activity was determined with the FLICA Apoptosis Detection Kit (Immunochemistry Technologies, Bloomington, MN, USA) according to the manufacturer’s instructions. […] The fluorescence intensity of fluorescein was determined with flow cytometry (BD FACSCalibur) and caspase activity was determined as the amount of fluorescence emitted from caspase inhibitors bound to the caspases.

[9] = tested on: MCF-7 (breast cancer); test: MTT cell viability assay, MCF-7; type: cell-based, human; conditions: Homo sapiens, MCF7, 72 h of incubation, mean ± SD
Description: as §3, §4

[10] = tested on: HCT-116 (colon cancer); test: MTT cell viability assay, HCT-116; type: cell-based, human; conditions: 72 h of incubation, mean ± SD
Description: as §3, §4

IC50 [2]: 47 µM
IC50 [5]: 34 ± 2 µM
IC50 ([5]; Homo sapiens, 72 h): 34 to 42 µM
IC50 [9]: 70 ± 3 µM
IC50 [10]: 36 ± 1 µM
IC50 ([10]; Homo sapiens, HCT-116, 72 h): 36 to 38 µM
Structure (SMILES): Cc1cc(S(=O)(=O)Nc2nncc(-c3ccc(C(F)(F)F)cc3)n2)c(SCc2cccc3ccccc23)cc1Cl [Compound 37, 4-Chloro-5-methyl-2-[(naphthalene-1-yl)methylthio]-N-[5-(4-trifluoromethylphenyl)-1,2,4-triazin-3-yl]-benzenesulfonamide]
morphological changes [1]: shrinkage of the cells, detachment from the surface
Sub-G1 cell population [3]: 48.6% ± 13.5%
Sub-G1 cell population [4]: 21% ± 3.4%
effect on mitochondrial membrane potential (Δψm) [6]: remarkably decreased Δψm
morphological changes [7]: shrinkage of the cells, detachment from the surface
increase of cell population with activated caspases [8]: 31%
